Where “and” joins values, the source holds several entries; their conditions need not be identical. Equal entries are not always repeated. Toxic doses and inconclusive results are not listed.
Test system: P388 leukemia ip, CD2F1 mice, survival T/C
Experiment: NCI In Vivo Anticancer Drug Screen. Data for tumor model P388 Leukemia (intraperitoneal) in CD2F1 (CDF1) mice
Conditions: endpoint: median survival time, higher = longer survival
In short: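 Mice carrying the transplanted tumor received test compound or vehicle. Survival was recorded in each group, and the value is the treated-group measurement divided by that of the vehicle-treated control group.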

O=C1c2c(O)ccc(O)c2C(=O)c2c(NCCNCCO)ccc(NCCNCCO)c21
T/C (dose: 0.02 mg/kg/injection, schedule: Q04DX003 (ip), vehicle: saline): 120 % of control | T/C (dose: 0.06 mg/kg/injection, schedule: Q01DX009 (ip), vehicle: saline): 175 % of control and 208 % of control | T/C (dose: 0.06 mg/kg/injection, schedule: Q04DX003 (ip), vehicle: saline): 218 % of control | T/C (dose: 0.12 mg/kg/injection, schedule: Q01DX009 (ip), vehicle: acid diluted with saline): 179 % of control and 190 % of control | T/C (dose: 0.12 mg/kg/injection, schedule: Q01DX009 (ip), vehicle: other): 165 % of control | T/C (dose: 0.12 mg/kg/injection, schedule: Q01DX009 (ip), vehicle: saline): 200 % of control and 220 % of control | T/C (dose: 0.12 mg/kg/injection, schedule: Q04DX003 (ip), vehicle: saline): 160 % of control | T/C (dose: 0.13 mg/kg/injection, schedule: Q01DX009 (ip), vehicle: acid diluted with saline): 150 % of control and 176 % of control | T/C (dose: 0.2 mg/kg/injection, schedule: Q01DX009 (ip), vehicle: acid diluted with saline): 250 % of control | T/C (dose: 0.2 mg/kg/injection, schedule: Q01DX009 (ip), vehicle: water): 172 % of control | T/C (dose: 0.25 mg/kg/injection, schedule: Q01DX005 (ip), vehicle: acid diluted with saline): 270 % of control | T/C (dose: 0.25 mg/kg/injection, schedule: Q04DX003 (ip), vehicle: saline): 182 % of control | T/C (dose: 0.32 mg/kg/injection, schedule: Q01DX009 (ip), vehicle: acid diluted with saline): 225 % of control | T/C (dose: 0.32 mg/kg/injection, schedule: Q01DX009 (sc), vehicle: acid diluted with saline): 122 % of control | T/C (dose: 0.39 mg/kg/injection, schedule: Q01DX009 (ip), vehicle: acid diluted with saline): 272 % of control | T/C (dose: 0.39 mg/kg/injection, schedule: Q01DX009 (ip), vehicle: water): 245 % of control | T/C (dose: 0.5 mg/kg/injection, schedule: Q01DX005 (ip), vehicle: acid diluted with saline): 270 % of control | T/C (dose: 0.5 mg/kg/injection, schedule: Q01DX005 (iv), vehicle: acid diluted with saline): 99 % of control | T/C (dose: 0.5 mg/kg/injection, schedule: Q01DX009 (ip), vehicle: other): 238 % of control and 333 % of control | T/C (dose: 0.5 mg/kg/injection, schedule: Q04DX003 (ip), vehicle: saline): 179 % of control | T/C (dose: 0.54 mg/kg/injection, schedule: Q01DX009 (ip), vehicle: acid diluted with saline): 234 % of control | T/C (dose: 0.54 mg/kg/injection, schedule: Q01DX009 (sc), vehicle: acid diluted with saline): 153 % of control | T/C (dose: 0.75 mg/kg/injection, schedule: Q04DX002 (ip), vehicle: acid diluted with saline): 209 % of control | T/C (dose: 0.75 mg/kg/injection, schedule: Q04DX003 (ip), vehicle: acid diluted with saline): 123 % of control | T/C (dose: 0.78 mg/kg/injection, schedule: Q01DX009 (ip), vehicle: water): 271 % of control | T/C (dose: 0.78 mg/kg/injection, schedule: Q04DX003 (ip), vehicle: acid diluted with saline): 409 % of control | T/C (dose: 0.9 mg/kg/injection, schedule: Q01DX009 (ip), vehicle: acid diluted with saline): 405 % of control | T/C (dose: 0.9 mg/kg/injection, schedule: Q01DX009 (sc), vehicle: acid diluted with saline): 216 % of control | T/C (dose: 1.0 mg/kg/injection, schedule: Q01DX005 (ip), vehicle: acid diluted with saline): 270 % of control | T/C (dose: 1.0 mg/kg/injection, schedule: Q04DX003 (ip), vehicle: saline): 151 % of control and 188 % of control and 208 % of control | T/C (dose: 1.04 mg/kg/injection, schedule: Q04DX003 (ip), vehicle: acid diluted with saline): 252 % of control | T/C (dose: 1.04 mg/kg/injection, schedule: Q04DX003 (iv), vehicle: acid diluted with saline): 162 % of control | T/C (dose: 1.08 mg/kg/injection, schedule: Q01DX009 (ip), vehicle: acid diluted with saline): 409 % of control | T/C (dose: 1.3 mg/kg/injection, schedule: Q04DX003 (ip), vehicle: acid diluted with saline): 302 % of control | T/C (dose: 1.5 mg/kg/injection, schedule: Q01DX009 (ip), vehicle: acid diluted with saline): 405 % of control | T/C (dose: 1.5 mg/kg/injection, schedule: Q01DX009 (sc), vehicle: acid diluted with saline): 272 % of control | T/C (dose: 1.5 mg/kg/injection, schedule: Q04DX002 (ip), vehicle: acid diluted with saline): 176 % of control and 201 % of control | T/C (dose: 1.56 mg/kg/injection, schedule: Q01DX009 (ip), vehicle: water): 218 % of control | T/C (dose: 1.73 mg/kg/injection, schedule: Q04DX003 (ip), vehicle: acid diluted with saline): 333 % of control | T/C (dose: 1.73 mg/kg/injection, schedule: Q04DX003 (iv), vehicle: acid diluted with saline): 227 % of control | T/C (dose: 1.8 mg/kg/injection, schedule: Q01DX009 (ip), vehicle: acid diluted with saline): 225 % of control | T/C (dose: 2.0 mg/kg/injection, schedule: Q01DX009 (ip), vehicle: other): 207 % of control | T/C (dose: 2.0 mg/kg/injection, schedule: Q04DX003 (ip), vehicle: saline): 164 % of control and 172 % of control and 207 % of control | T/C (dose: 2.5 mg/kg/injection, schedule: Q01DX009 (ip), vehicle: acid diluted with saline): 180 % of control | T/C (dose: 2.88 mg/kg/injection, schedule: Q04DX003 (ip), vehicle: acid diluted with saline): 333 % of control | T/C (dose: 3.0 mg/kg/injection, schedule: Q01DX001 (ip), vehicle: acid diluted with saline): 333 % of control | T/C (dose: 3.0 mg/kg/injection, schedule: Q01DX009 (ip), vehicle: acid diluted with saline): 102 % of control | T/C (dose: 3.0 mg/kg/injection, schedule: Q04DX002 (ip), vehicle: acid diluted with saline): 260 % of control and 288 % of control | T/C (dose: 3.24 mg/kg/injection, schedule: Q01DX001 (iv), vehicle: acid diluted with saline): 178 % of control | T/C (dose: 3.3 mg/kg/injection, schedule: Q01DX001 (ip), vehicle: acid diluted with saline): 247 % of control | T/C (dose: 4.0 mg/kg/injection, schedule: Q01DX001 (ip), vehicle: acid diluted with saline): 187 % of control | T/C (dose: 4.0 mg/kg/injection, schedule: Q01DX001 (iv), vehicle: acid diluted with saline): 117 % of control | T/C (dose: 4.0 mg/kg/injection, schedule: Q01DX009 (ip), vehicle: other): 99 % of control | T/C (dose: 4.0 mg/kg/injection, schedule: Q04DX003 (ip), vehicle: saline): 166 % of control and 223 % of control and 233 % of control | T/C (dose: 4.4 mg/kg/injection, schedule: Q01DX001 (ip), vehicle: acid diluted with saline): 229 % of control | T/C (dose: 4.8 mg/kg/injection, schedule: Q04DX003 (ip), vehicle: acid diluted with saline): 180 % of control | T/C (dose: 5.0 mg/kg/injection, schedule: Q01DX001 (ip), vehicle: other): 250 % of control | T/C (dose: 5.4 mg/kg/injection, schedule: Q01DX001 (ip), vehicle: acid diluted with saline): 405 % of control | T/C (dose: 5.4 mg/kg/injection, schedule: Q01DX001 (iv), vehicle: acid diluted with saline): 270 % of control | T/C (dose: 6.0 mg/kg/injection, schedule: Q04DX002 (ip), vehicle: acid diluted with saline): 192 % of control and 260 % of control | T/C (dose: 6.7 mg/kg/injection, schedule: Q01DX001 (ip), vehicle: acid diluted with saline): 293 % of control | T/C (dose: 8.0 mg/kg/injection, schedule: Q01DX001 (ip), vehicle: acid diluted with saline): 171 % of control | T/C (dose: 8.0 mg/kg/injection, schedule: Q01DX001 (iv), vehicle: acid diluted with saline): 198 % of control | T/C (dose: 8.0 mg/kg/injection, schedule: Q04DX003 (ip), vehicle: acid diluted with saline): 107 % of control | T/C (dose: 8.0 mg/kg/injection, schedule: Q04DX003 (ip), vehicle: saline): 164 % of control and 232 % of control | T/C (dose: 8.0 mg/kg/injection, schedule: Q04DX003 (iv), vehicle: acid diluted with saline): 99 % of control | T/C (dose: 9.0 mg/kg/injection, schedule: Q01DX001 (ip), vehicle: acid diluted with saline): 261 % of control | T/C (dose: 9.0 mg/kg/injection, schedule: Q01DX001 (iv), vehicle: acid diluted with saline): 405 % of control | T/C (dose: 10.0 mg/kg/injection, schedule: Q04DX003 (ip), vehicle: acid diluted with saline): 180 % of control | T/C (dose: 12.0 mg/kg/injection, schedule: Q04DX002 (ip), vehicle: acid diluted with saline): 118 % of control | T/C (dose: 15.0 mg/kg/injection, schedule: Q01DX001 (ip), vehicle: other): 302 % of control | T/C (dose: 15.0 mg/kg/injection, schedule: Q01DX001 (iv), vehicle: acid diluted with saline): 405 % of control | T/C (dose: 16.0 mg/kg/injection, schedule: Q01DX001 (ip), vehicle: acid diluted with saline): 173 % of control | T/C (dose: 16.0 mg/kg/injection, schedule: Q01DX001 (iv), vehicle: acid diluted with saline): 101 % of control | T/C (dose: 16.0 mg/kg/injection, schedule: Q04DX003 (ip), vehicle: saline): 101 % of control and 117 % of control | T/C (dose: 25.0 mg/kg/injection, schedule: Q01DX001 (ip), vehicle: acid diluted with saline): 225 % of control | T/C (dose: 32.0 mg/kg/injection, schedule: Q01DX001 (ip), vehicle: acid diluted with saline): 270 % of control | T/C (dose: 32.0 mg/kg/injection, schedule: Q04DX003 (ip), vehicle: saline): 100 % of control | T/C (dose: 64.0 mg/kg/injection, schedule: Q01DX001 (ip), vehicle: acid diluted with saline): 270 % of control | T/C (dose: 7.0 micrograms/kg/injection, schedule: Q04DX003 (ip), vehicle: saline): 107 % of control | T/C (dose: 15.0 micrograms/kg/injection, schedule: Q04DX003 (ip), vehicle: saline): 107 % of control | T/C (dose: 31.0 micrograms/kg/injection, schedule: Q04DX003 (ip), vehicle: saline): 120 % of control

Source: PubChem BioAssay AID330 (DTP/NCI, 2004)
